Assays:
[1] = system: vascular smooth muscle cells, MG-63 cell line, HepG2 cell line; assay: K epoxide formation without warfarin under cell starvation (1% fetal calf serum); assay type: cell-based; conditions: no warfarin, fetal calf serum decreased to 1% (v/v)
Description: (§1) This series of cell culture experiments describe vitamin K uptake and metabolism under various conditions. The following forms of vitamin K were compared: K1, MK-4, MK-7, MK-8 and MK-9. They were tested in three different cell types: the vascular smooth muscle cells, the osteoblast-like MG-63 cell line and the hepatocyte-like HepG2 cell line. In all experiments the vitamins were used as a mixture containing 1 μmol/L of each vitamin. All data are the means of triplicate experiments.
(§2) Since under standard cell culture conditions no epoxides are formed, we have applied sub-optimal growth conditions by decreasing the fetal calf serum in the culture medium to 1% (v/v). […] This was ruled out in an experiment in which VSMC and MG63 were grown at 1% FCS and with only one single form of vitamin K present (1 μmol/L).

[2] = system: vascular smooth muscle cells, MG-63 cell line, HepG2 cell line; assay: K epoxide formation in the presence of warfarin (bypassing of warfarin) in three cell types; assay type: cell-based; conditions: for interference with warfarin: 10 μmol/L warfarin added 18 h before and present during vitamin K incubation
Description: as §1
(§3) Under normal conditions, all forms of vitamin K are taken up in their quinone form, and they are reduced into the hydroquinone before being active as a cofactor for the enzyme gammaglutamylcarboxylase. During the carboxylation they are oxidized into epoxides, which can be reduced by the membrane-bound enzyme VKOR. VKOR forms the target for drugs known as coumarin derivatives, which inactivate the enzyme and thus block the recycling of K epoxides. Vitamin K quinones (and not the epoxides) can be reduced by a second enzyme system, known as DT diaphorase. […] Coumarin derivatives are widely used as oral anticoagulants; their mode of action is based on the inhibition of clotting factor carboxylation in the liver. Interference with coumarin derivatives is thus a potential risk of vitamin K supplements. Therefore we have investigated whether and to which extend the various K vitamins interfere with warfarin. In the study described, 10 μmol/L of warfarin was added to the culture media 18 h before adding vitamin K. Also during incubation with K vitamins this concentration of warfarin was present.

[3] = system: vascular smooth muscle cells; assay: Carboxylated matrix Gla-protein in culture medium with a single form of vitamin K; assay type: cell-based; conditions: 1% FCS, single form of vitamin K 1 μmol/L, 24 hours incubation
Description: as §2

[4] = system: MG63; assay: Carboxylated osteocalcin in culture medium with a single form of vitamin K; assay type: cell-based; conditions: 1% FCS, single form of vitamin K 1 μmol/L, 24 hours incubation
Description: as §2

[5] = Stability of K vitamins in cell culture media with no cells present; assay type: physicochemical; conditions: 1 μM of each vitamin, three growth media, over 48 hours
Description: Here we have checked the stability of the various forms of vitamin K (1 μM of each) in the three cell culture media with no cells present.

[6] = system: vascular smooth muscle cells, MG-63 cell line, HepG2 cell line; assay: Cellular vitamin K uptake in three cell types; assay type: cell-based; conditions: for cellular uptake compared with other K vitamins: all cells, mixture containing 1 μmol/L of each vitamin
Description: as §1
(§4) Cells were grown until 80% confluence after which vitamin K was added in different concentrations (see FIGS. 5A-C). The added vitamin K concentration is given as nmol/L of culture medium, the vitamin K recovered is given as nmol/g of cellular protein. Note the different scales for each vitamin.
Cellular uptake of K vitamins was followed in time. In all cases a mixture of the various K vitamins (1 μmol/L final concentration in the culture medium) was added to the cells after they had grown to 80% confluence. […] The mechanism behind this cellular preference for MK-7 is not quite clear.

[7] = system: MG63 cell line; assay: K epoxide formation in the presence of warfarin in MG63; assay type: cell-based; conditions: 10 μmol/L warfarin
Description: as §1
as §3, with “In the study described, 10 μmol/L of warfarin was added to the culture media 18 h before adding vitamin K. Also during incubation with K vitamins this concentration of warfarin was present.” left out

[8] = system: vascular smooth muscle cells; assay: Cellular MK-7 uptake in vascular smooth muscle cells; assay type: cell-based; conditions: FIG. 5D
Description: as §1, §4

[9] = Stability of MK-7 dissolved in fish oil and krill oil; assay type: physicochemical; conditions: for time compositions remained stable: MK-7 mixed with fish oil or krill oil
Description: Compositions as described in Examples 2 and 4 (MK-7 dissolved in fish oil and krill oil, respectively) were prepared to a final concentration of 2 μg of MK-7 per g of oil. Samples were prepared in sealed glass bottles and kept in a dark place at room temperature, 40° C. and 100° C., respectively. At regular times, samples were taken and analyzed for their MK-7 content. No loss of MK-7 was observed, even after 2 weeks at 100° C.

[10] = system: osteocalcin; assay: Carboxylated / non-carboxylated osteocalcin in serum during fish oil and MK-7 intake; assay type: in vivo, human; conditions: 5 g/day fish oil plus 10 μg/day MK-7, months 3 and 4
Text: In the same experiment as described above, also serum was collected, in which carboxylated and non-carboxylated osteocalcin species were monitored using the conformation-specific osteocalcin kits from Takara (Japan).

[11] = system: endogenous thrombin potential (ETP); assay: Endogenous thrombin potential (ETP) in platelet-rich plasma of volunteers on fish oil, with or without MK-7; assay type: in vivo, human
Text: Twenty healthy males (43±8 years of age) were enrolled in the study. The mean body mass index was 25.1±3.5 kg/m^2. All subjects received 5 grams of fish oil (containing 35% EPA, 25% DHA and 10% other n-3 PUFA) per day during 4 months. […] Blood samples were collected in citrate every month to prepare platelet-rich plasma. The endogenous thrombin potential (ETP), reflecting the total thrombin activity during coagulation, was monitored according to H. C. Hemker et al. (Pathophysiology of Haemostasis and Thrombosis 2003; 33:4-15). Carboxylated and non-carboxylated Matrix Gla-Protein (MGP) species were monitored using sandwich ELISAs based on conformation-specific antibodies obtained from VitaK BV (Maastricht, The Netherlands) with normal pooled plasma as a reference. The ratio between carboxylated and non-carboxylated MGP is taken as a measure for vascular vitamin K status. All values are expressed as a percentage of those in the pooled reference plasma.

[12] = system: blood clotting factor carboxylation; conditions: dosages as high as 100 μg per day; cited from earlier work
[13] = system: Matrix Gla-Protein (MGP); assay: Carboxylated / non-carboxylated MGP in plasma by sandwich ELISA during fish oil and MK-7 intake; assay type: in vivo, human; conditions: 5 g/day fish oil plus 10 μg/day MK-7, months 2, 3 and 4
Description: Twenty healthy males (43±8 years of age) were enrolled in the study. The mean body mass index was 25.1±3.5 kg/m^2. All subjects received 5 grams of fish oil (containing 35% EPA, 25% DHA and 10% other n-3 PUFA) per day during 4 months. During the last 3 months of the study all volunteers received additionally one soft gel capsule per day providing 10 μg of MK-7. Blood samples were collected in citrate every month to prepare platelet-rich plasma. The endogenous thrombin potential (ETP), reflecting the total thrombin activity during coagulation, was monitored according to H. C. Hemker et al. (Pathophysiology of Haemostasis and Thrombosis 2003; 33:4-15). Carboxylated and non-carboxylated Matrix Gla-Protein (MGP) species were monitored using sandwich ELISAs based on conformation-specific antibodies obtained from VitaK BV (Maastricht, The Netherlands) with normal pooled plasma as a reference. The ratio between carboxylated and non-carboxylated MGP is taken as a measure for vascular vitamin K status. All values are expressed as a percentage of those in the pooled reference plasma.

[14] = system: MG63; assay: Cellular MK-7 uptake in MG63; assay type: cell-based; conditions: FIG. 5D
Description: as §1, §4

SMILES	epoxides found without warfarin at decreased fetal calf serum [1]	interference with warfarin [2]	Carboxylated matrix Gla-protein in the culture medium [3]	Carboxylated osteocalcin in the culture medium [4]	stability in growth media [5]	cellular uptake compared with other K vitamins [6]	utilization of K-vitamins in the presence of warfarin (rank order) ([2]; 10 μmol/L warfarin)	other results
CC1=C(C/C=C(\C)CCC[C@H](C)CCC[C@H](C)CCCC(C)C)C(=O)c2ccccc2C1=O [K1, vitamin K1, reference compound]	mainly found	interfere substantially	12.4 ng/mL	3.2 ng/mL	fairly stable	much less	–	–
CC(C)=CCC/C(C)=C/CC/C(C)=C/CC/C(C)=C/CC1=C(C)C(=O)c2ccccc2C1=O [MK-4]	mainly found	interfere substantially	10.7 ng/mL	4.1 ng/mL	–	much less	–	K vitamin epoxides identified in the presence of warfarin [7]: could only identify MK-4 epoxide
CC(C)=CCC/C(C)=C/CC/C(C)=C/CC/C(C)=C/CC/C(C)=C/CC/C(C)=C/CC/C(C)=C/CC1=C(C)C(=O)c2ccccc2C1=O [MK-7]	–	–	13.5 ng/mL	3.9 ng/mL	fairly stable	taken up better than other K vitamins	MK-7>MK-8>MK-9	vitamin K uptake compared between cell types [8]: highest; loss of MK-7 content ([9]; 2 μg MK-7 per g fish oil or krill oil, sealed glass bottles, dark, room temperature, 40° C., 100° C., even after 2 weeks at 100° C.): No loss; time compositions remained stable ([9]; 40° C.): ≥ 6 months; time compositions remained stable ([9]; 100° C.): at least 2 weeks; time compositions remained stable ([9]; room temperature): ≥ 3 years; change in osteocalcin carboxylation [10]: significance was lost; fish-oil induced hypocoagulability (ETP) ([11]; 10 μg/day MK-7 during last 3 of 4 months on 5 g/day fish oil): not counteracted; ETP lowering effect of marine oils ([11]; MK-7 100 μg per day and higher, marine oil intake 5 grams per day): completely reversed; endogenous thrombin potential (ETP) ([11]; MK-7 between 1 and 10 μg/day, marine oil intake 5 grams per day): did not affect; effect on warfarin anticoagulation [12]: counteract the effect of warfarin; change in MGP carboxylation (ratio carboxylated / non-carboxylated MGP) [13]: significance was lost; vitamin K uptake compared between cell types [14]: lowest; cellular uptake compared with other K vitamins (dose-response, Experiment 6) ([6]; all systems, notably extrahepatic cells, cells at 80% confluence): taken up surprisingly better than the other K vitamins; cellular uptake compared with other K vitamins (time course, Experiment 7) ([6]; all three cell systems, mixture 1 μmol/L): taken up better than any of the other vitamins
CC(C)=CCC/C(C)=C/CC/C(C)=C/CC/C(C)=C/CC/C(C)=C/CC/C(C)=C/CC/C(C)=C/CC/C(C)=C/CC1=C(C)C(=O)c2ccccc2C1=O [MK-8]	–	–	–	–	fairly stable	somewhat less	MK-7>MK-8>MK-9	–
CC(C)=CCC/C(C)=C/CC/C(C)=C/CC/C(C)=C/CC/C(C)=C/CC/C(C)=C/CC/C(C)=C/CC/C(C)=C/CC/C(C)=C/CC1=C(C)C(=O)c2ccccc2C1=O [MK-9]	–	–	–	–	fairly stable	somewhat less	MK-7>MK-8>MK-9	epoxide formation in the presence of warfarin ([2]; 10 μmol/L warfarin, FIG. 7): hardly formed

— patent publication US20100048704A1, “PHARMACEUTICAL AND NUTRACEUTICAL PRODUCTS COMPRISING VITAMIN K2” (NATTOPHARMA ASA, priority 2006, published 2010)
